Source: article PMC3663124, “S-Adenosyl-S-carboxymethyl-L-homocysteine: a novel cofactor found in the putative tRNA-modifying enzyme CmoA” (Acta Crystallographica Section D: Biological Crystallography, 2013)

Target: T1, CmoA (Escherichia coli, UniProt P76290)
T1 construct: R100H versus P76290 (PCR mutation or strain difference); expressed in E. coli Rosetta pLysS (DE3); dimer; residues 19-247 (chain A) and 20-244 (chain B) modelled
Assay: X-ray crystal structure ([…] A); FT-MS of released ligand
Format: binding
Conditions: copurified from E. coli expression host; carboxymethyl carboxylate salt bridge to Arg199; putative active site

T1 sequence (P76290 whole entry R100H, the tested form may be a part): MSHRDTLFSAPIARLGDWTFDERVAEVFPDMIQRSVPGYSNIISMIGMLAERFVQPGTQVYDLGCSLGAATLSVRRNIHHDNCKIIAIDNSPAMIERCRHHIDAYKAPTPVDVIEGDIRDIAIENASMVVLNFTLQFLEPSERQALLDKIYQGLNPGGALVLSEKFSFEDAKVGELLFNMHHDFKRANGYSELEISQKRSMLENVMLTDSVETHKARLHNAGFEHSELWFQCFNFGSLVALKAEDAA

Structure (SMILES): Nc1ncnc2c1ncn2[C@@H]1O[C@H](C[S+](CC[C@H](N)C(=O)O)CC(=O)O)[C@@H](O)[C@H]1O (stereo partly drawn) [[(3S)-3-amino-3-carboxypropyl]{[(2S,3S,4R,5R)-5-(6-aminopurin-9-yl)-3,4-dihydroxyoxolan-2-yl]methyl}(carboxymethyl)sulfanium]
- X-ray crystal structure (1.73 A); FT-MS of released ligand: both molecules of CmoA contain the novel derivative S-adenosyl-S-carboxymethyl-L-homocysteine (SCM-SAH)
